Laboratory results from patent US10344060B2 (priority 2013, dated 2019).
Read-outs that look alike come from different tables or passages of the source.

What was measured:
[1] = molecular target: hNav1.4 (Homo sapiens, UniProt P35499); assay: cell-based; assay type: cell-based; conditions: for IC50: PatchXpress, read-out: PX hNav1.4 Tonic IC50; for Nav1.4/Nav1.7: ratio of PX tonic IC50 values
[2] = molecular target: hNav1.7 (Homo sapiens, UniProt Q15858); assay: cell-based; assay type: cell-based; conditions: for IC50: PatchXpress, read-out: PX hNav1.7 Tonic IC50; for Nav1.4/Nav1.7: ratio of PX tonic IC50 values
Chain of hNav1.7 (Q15858 whole entry): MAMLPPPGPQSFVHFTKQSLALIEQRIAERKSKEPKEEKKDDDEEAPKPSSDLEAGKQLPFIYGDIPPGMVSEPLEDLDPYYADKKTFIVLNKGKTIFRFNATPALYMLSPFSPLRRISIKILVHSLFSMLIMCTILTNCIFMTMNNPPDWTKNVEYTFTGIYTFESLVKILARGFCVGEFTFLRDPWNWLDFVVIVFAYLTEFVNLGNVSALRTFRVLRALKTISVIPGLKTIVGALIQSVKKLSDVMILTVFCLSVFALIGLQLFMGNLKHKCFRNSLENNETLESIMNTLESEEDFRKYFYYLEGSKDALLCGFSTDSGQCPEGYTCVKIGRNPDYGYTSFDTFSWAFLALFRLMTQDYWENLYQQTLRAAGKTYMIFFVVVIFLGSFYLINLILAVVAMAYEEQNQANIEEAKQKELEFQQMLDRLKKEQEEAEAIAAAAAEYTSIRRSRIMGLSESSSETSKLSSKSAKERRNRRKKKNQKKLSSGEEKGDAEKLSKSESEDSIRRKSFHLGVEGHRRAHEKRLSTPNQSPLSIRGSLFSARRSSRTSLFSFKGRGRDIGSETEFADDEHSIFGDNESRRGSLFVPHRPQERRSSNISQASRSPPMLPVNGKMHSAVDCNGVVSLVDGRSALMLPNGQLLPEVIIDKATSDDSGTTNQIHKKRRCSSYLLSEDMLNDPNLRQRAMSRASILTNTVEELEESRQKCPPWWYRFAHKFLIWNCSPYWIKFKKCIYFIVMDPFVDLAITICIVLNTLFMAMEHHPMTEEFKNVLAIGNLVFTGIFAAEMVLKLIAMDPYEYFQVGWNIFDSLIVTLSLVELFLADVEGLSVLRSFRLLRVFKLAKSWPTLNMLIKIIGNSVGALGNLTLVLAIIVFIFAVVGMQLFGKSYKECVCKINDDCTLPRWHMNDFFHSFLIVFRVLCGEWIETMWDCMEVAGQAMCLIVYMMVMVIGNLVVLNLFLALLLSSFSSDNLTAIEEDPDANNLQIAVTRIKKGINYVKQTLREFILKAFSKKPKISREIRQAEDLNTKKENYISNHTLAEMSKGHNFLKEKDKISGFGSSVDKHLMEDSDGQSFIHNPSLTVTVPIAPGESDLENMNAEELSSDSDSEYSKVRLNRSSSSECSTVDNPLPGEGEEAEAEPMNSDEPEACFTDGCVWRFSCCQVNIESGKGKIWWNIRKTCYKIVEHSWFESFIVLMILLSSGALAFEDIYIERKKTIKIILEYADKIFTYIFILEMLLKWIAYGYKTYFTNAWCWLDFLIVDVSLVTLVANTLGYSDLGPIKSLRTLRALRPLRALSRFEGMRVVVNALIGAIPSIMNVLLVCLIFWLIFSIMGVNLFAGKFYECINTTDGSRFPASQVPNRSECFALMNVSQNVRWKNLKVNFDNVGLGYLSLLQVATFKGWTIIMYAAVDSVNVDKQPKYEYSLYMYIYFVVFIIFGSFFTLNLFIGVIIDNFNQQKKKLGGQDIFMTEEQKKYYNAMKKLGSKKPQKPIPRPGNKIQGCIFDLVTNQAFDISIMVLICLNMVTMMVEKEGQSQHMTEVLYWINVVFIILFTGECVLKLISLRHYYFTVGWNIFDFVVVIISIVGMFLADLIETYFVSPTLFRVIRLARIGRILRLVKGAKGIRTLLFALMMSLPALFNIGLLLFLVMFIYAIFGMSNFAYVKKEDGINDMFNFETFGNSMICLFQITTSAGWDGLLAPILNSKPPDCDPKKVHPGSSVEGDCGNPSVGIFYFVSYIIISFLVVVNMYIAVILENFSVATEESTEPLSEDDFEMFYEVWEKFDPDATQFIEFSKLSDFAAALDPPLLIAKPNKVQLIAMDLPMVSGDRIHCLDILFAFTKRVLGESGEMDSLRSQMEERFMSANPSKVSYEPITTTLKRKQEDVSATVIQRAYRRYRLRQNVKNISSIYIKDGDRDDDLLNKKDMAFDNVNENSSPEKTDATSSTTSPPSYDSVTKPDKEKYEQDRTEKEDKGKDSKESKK

Chain of hNav1.4 (P35499 whole entry): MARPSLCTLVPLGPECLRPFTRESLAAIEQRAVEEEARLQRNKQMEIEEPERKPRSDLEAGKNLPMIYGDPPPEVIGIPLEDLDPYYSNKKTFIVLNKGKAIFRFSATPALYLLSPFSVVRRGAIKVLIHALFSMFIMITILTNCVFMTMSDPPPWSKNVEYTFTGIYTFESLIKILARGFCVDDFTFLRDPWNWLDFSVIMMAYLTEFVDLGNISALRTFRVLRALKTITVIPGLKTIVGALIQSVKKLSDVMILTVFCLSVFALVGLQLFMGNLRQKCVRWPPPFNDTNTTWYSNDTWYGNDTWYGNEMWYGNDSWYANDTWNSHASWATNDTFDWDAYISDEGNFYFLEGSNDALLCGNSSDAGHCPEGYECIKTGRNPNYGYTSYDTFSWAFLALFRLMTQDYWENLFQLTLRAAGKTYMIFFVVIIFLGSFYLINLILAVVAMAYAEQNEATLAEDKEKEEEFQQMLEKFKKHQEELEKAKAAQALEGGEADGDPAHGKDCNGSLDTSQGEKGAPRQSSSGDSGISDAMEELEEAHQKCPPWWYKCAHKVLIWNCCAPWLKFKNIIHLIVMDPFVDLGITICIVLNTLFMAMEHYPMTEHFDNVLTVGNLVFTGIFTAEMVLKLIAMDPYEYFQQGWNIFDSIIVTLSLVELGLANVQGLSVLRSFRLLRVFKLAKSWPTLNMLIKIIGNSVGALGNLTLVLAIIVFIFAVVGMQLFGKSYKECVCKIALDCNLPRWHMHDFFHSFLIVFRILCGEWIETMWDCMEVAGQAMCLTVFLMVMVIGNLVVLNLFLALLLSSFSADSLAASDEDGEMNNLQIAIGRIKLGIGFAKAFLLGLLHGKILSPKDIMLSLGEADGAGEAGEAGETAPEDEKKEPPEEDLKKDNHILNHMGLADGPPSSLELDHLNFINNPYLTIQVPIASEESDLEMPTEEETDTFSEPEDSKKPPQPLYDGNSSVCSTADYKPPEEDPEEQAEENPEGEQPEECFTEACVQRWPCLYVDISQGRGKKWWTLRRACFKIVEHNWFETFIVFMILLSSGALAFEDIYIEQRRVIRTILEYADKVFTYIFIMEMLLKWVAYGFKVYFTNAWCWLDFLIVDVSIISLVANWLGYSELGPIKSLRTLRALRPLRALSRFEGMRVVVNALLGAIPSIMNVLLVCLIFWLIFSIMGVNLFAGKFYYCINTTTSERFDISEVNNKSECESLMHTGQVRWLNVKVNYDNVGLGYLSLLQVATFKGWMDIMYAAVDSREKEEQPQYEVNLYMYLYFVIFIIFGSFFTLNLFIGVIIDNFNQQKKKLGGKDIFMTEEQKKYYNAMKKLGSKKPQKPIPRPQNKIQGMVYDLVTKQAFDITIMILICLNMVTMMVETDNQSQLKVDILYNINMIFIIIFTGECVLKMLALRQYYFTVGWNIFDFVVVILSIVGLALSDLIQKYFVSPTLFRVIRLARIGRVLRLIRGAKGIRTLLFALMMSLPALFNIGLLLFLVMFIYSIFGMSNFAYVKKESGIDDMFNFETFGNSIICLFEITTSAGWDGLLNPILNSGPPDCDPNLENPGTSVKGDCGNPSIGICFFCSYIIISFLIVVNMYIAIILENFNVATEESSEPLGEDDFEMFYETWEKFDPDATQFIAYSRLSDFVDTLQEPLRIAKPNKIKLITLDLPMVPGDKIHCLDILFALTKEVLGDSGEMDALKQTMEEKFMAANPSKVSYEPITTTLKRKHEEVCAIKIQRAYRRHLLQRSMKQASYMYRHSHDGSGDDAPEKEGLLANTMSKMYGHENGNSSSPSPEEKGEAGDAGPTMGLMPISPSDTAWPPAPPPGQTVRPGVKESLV

Row | Structure (SMILES) | IC50 ([1]; Table 12, tonic block) [nM] | Nav1.4/Nav1.7 ([1]; Table 12) | IC50 ([2]; Table 12, tonic block) [nM] | IC50 ([1]; tonic, Table 11) [nM] | IC50 ([2]; tonic, Table 11) [nM] | Nav1.4/Nav1.7 ([2]; Table 11)
1 | C#CC[C@H](N)C(=O)N[C@@H](Cc1ccc(O)cc1)C(=O)N[C@H]1C[Se][Se]C[C@@H]2NC(=O)[C@@H]3CSSC[C@@H](C(=O)N[C@@H](CCCNC(=N)N)C(=O)N[C@@H](CCCCN)C(=O)N[C@@H](CCC(=O)O)C(=O)N[C@H](C(N)=O)[C@@H](C)CC)NC(=O)[C@H](Cc4c[nH]c5ccccc45)NC(=O)[C@H](CC(C)C)NC(=O)[C@H](CCCCN)NC(=O)[C@H](CSSC[C@H](NC(=O)[C@H]([C@@H](C)O)NC(=O)[C@H](Cc4c[nH]c5ccccc45)NC(=O)[C@H](CCCC)NC(=O)[C@H](Cc4c[nH]c5ccccc45)NC(=O)[C@H](CCCCN)NC(=O)[C@H](CCC(N)=O)NC1=O)C(=O)N[C@@H](CC(=O)O)C(=O)N[C@@H](CO)C(=O)N[C@@H](CCCCN)C(=O)N[C@@H](CCCNC(=N)N)C(=O)N[C@@H](C)C(=O)N3)NC(=O)[C@H](CCCNC(=N)N)NC(=O)[C@H](CC(C)C)NC(=O)CNC(=O)[C@H](CCC(=O)O)NC2=O [compound 838] | 58.1 | 61 | 0.949 | – | – | –
2 | C#CC[C@@H]1NC(=O)[C@@H]2CSSC[C@H](NC(=O)[C@H](Cc3ccc(O)cc3)NC(=O)[C@@H](N)CC#N)C(=O)N[C@@H](CCC(N)=O)C(=O)N[C@@H](CCCCN)C(=O)N[C@@H](Cc3c[nH]c4ccccc34)C(=O)N[C@@H](CCCC)C(=O)N[C@@H](Cc3c[nH]c4ccccc34)C(=O)N[C@@H]([C@@H](C)O)C(=O)N[C@H]3CSSC[C@H](NC(=O)[C@H](CCCNC(=N)N)NC(=O)[C@H](CC(C)C)NC(=O)CNC1=O)C(=O)N[C@@H](CCCCN)C(=O)N[C@@H](CC(C)C)C(=O)N[C@@H](Cc1c[nH]c4ccc(Br)cc14)C(=O)N[C@H](C(=O)N[C@@H](CCCNC(=N)N)C(=O)N[C@@H](CCCCN)C(=O)N[C@H](C(=O)N[C@H](C(N)=O)[C@@H](C)CC)[C@@H](C)CC)CSSC[C@H](NC(=O)[C@H](C)NC(=O)[C@H](CCCNC(=N)N)NC(=O)[C@H](CCCCN)NC(=O)[C@H](CO)NC(=O)[C@H](CC(=O)O)NC3=O)C(=O)N2 [compound 872] | 3.6 | 3 | 1.09 | – | – | –
3 | CC[C@H](C)[C@H](NC(=O)[C@@H](NC(=O)[C@H](CCC(=O)O)NC(=O)[C@H](CCCNC(=N)N)NC(=O)[C@@H]1CSSC[C@@H]2NC(=O)[C@H](C)NC(=O)[C@H](CCCNC(=N)N)NC(=O)[C@H](CCCCN)NC(=O)[C@H](CO)NC(=O)[C@H](CC(=O)O)NC(=O)[C@@H]3CSSC[C@H](NC(=O)[C@H](CCCNC(=N)N)NC(=O)[C@H](CC(C)C)NC(=O)CNC(=O)[C@H](CCC(=O)O)NC(=O)[C@H](CSSC[C@H](NC(=O)[C@@H](N)Cc4ccc(O)cc4)C(=O)N[C@@H](CCC(N)=O)C(=O)N[C@@H](CCCCN)C(=O)N[C@@H](Cc4c[nH]c5ccccc45)C(=O)N[C@@H](CCSC)C(=O)N[C@@H](Cc4c[nH]c5ccccc45)C(=O)N[C@@H]([C@@H](C)O)C(=O)N3)NC2=O)C(=O)N[C@@H](CCCCN)C(=O)N[C@@H](CC(C)C)C(=O)N[C@@H](Cc2c[nH]c3ccccc23)C(=O)N1)[C@@H](C)CC)C(N)=O [compound 68] | – | – | – | 324 | 12.3 | 26
4 | CC[C@H](C)[C@H](NC(=O)[C@@H](NC(=O)[C@H](CCCCN)NC(=O)[C@H](CCCNC(=N)N)NC(=O)[C@@H]1CSSC[C@@H]2NC(=O)[C@H](C)NC(=O)[C@H](CCCNC(=N)N)NC(=O)[C@H](CCCCN)NC(=O)[C@H](CO)NC(=O)[C@H](CC(=O)O)NC(=O)[C@@H]3CSSC[C@H](NC(=O)[C@H](CCCNC(=N)N)NC(=O)[C@H](CC(C)C)NC(=O)CNC(=O)[C@H](CCC(=O)O)NC(=O)[C@H](CSSC[C@H](NC(=O)[C@@H](N)Cc4ccc(O)cc4)C(=O)N[C@@H](CCC(N)=O)C(=O)N[C@@H](CCCCN)C(=O)N[C@@H](Cc4c[nH]c5ccccc45)C(=O)N[C@@H](CCSC)C(=O)N[C@@H](Cc4c[nH]c5ccccc45)C(=O)N[C@@H]([C@@H](C)O)C(=O)N3)NC2=O)C(=O)N[C@@H](CCC(=O)O)C(=O)N[C@@H](CC(C)C)C(=O)N[C@@H](Cc2c[nH]c3ccccc23)C(=O)N1)[C@@H](C)CC)C(N)=O [compound 64] | – | – | – | 4340 | 930 | 5
5 | C#CC[C@H](N)C(=O)N[C@@H](Cc1ccc(O)cc1)C(=O)N[C@H]1CSSC[C@@H]2NC(=O)[C@@H]3CSSC[C@@H](C(=O)N[C@@H](CCCNC(=N)N)C(=O)N[C@@H](CCCCN)C(=O)N[C@H](C(=O)N[C@H](C(N)=O)[C@@H](C)CC)[C@@H](C)CC)NC(=O)[C@H](Cc4c[nH]c5ccc(Br)cc45)NC(=O)[C@H](CC(C)C)NC(=O)[C@H](CCCCN)NC(=O)[C@H](CSSC[C@H](NC(=O)[C@H]([C@@H](C)O)NC(=O)[C@H](Cc4c[nH]c5ccccc45)NC(=O)[C@H](CCCC)NC(=O)[C@H](Cc4c[nH]c5ccccc45)NC(=O)[C@H](CCCCN)NC(=O)[C@H](CCC(N)=O)NC1=O)C(=O)N[C@@H](CC(=O)O)C(=O)N[C@@H](CO)C(=O)N[C@@H](CCCCN)C(=O)N[C@@H](CCCNC(=N)N)C(=O)N[C@@H](C)C(=O)N3)NC(=O)[C@H](CCCNC(=N)N)NC(=O)[C@H](CC(C)C)NC(=O)CNC(=O)[C@H](CCC(=O)O)NC2=O [compound 871] | 11 | 7 | 1.66 | – | – | –
6 | CC[C@H](C)[C@H](NC(=O)[C@@H](NC(=O)[C@H](CCCCN)NC(=O)[C@H](CCCNC(=N)N)NC(=O)[C@@H]1CSSC[C@@H]2NC(=O)[C@H](C)NC(=O)[C@H](CCCNC(=N)N)NC(=O)[C@H](CCCCN)NC(=O)[C@H](CO)NC(=O)[C@H](CC(=O)O)NC(=O)[C@@H]3CSSC[C@H](NC(=O)[C@H](CCCNC(=N)N)NC(=O)[C@H](CC(C)C)NC(=O)CNC(=O)[C@H](CCC(=O)O)NC(=O)[C@H](CSSC[C@H](NC(=O)[C@@H](N)Cc4ccc(O)cc4)C(=O)N[C@@H](CCC(=O)O)C(=O)N[C@@H](CCCCN)C(=O)N[C@@H](Cc4c[nH]c5ccccc45)C(=O)N[C@@H](CCSC)C(=O)N[C@@H](Cc4c[nH]c5ccccc45)C(=O)N[C@@H]([C@@H](C)O)C(=O)N3)NC2=O)C(=O)N[C@@H](CCCCN)C(=O)N[C@@H](CC(C)C)C(=O)N[C@@H](Cc2c[nH]c3ccccc23)C(=O)N1)[C@@H](C)CC)C(N)=O [compound 50] | – | – | – | 453 | 58.7 | 8
7 | C#CC[C@@H]1NC(=O)[C@@H]2CSSC[C@H](NC(=O)[C@H](Cc3ccc(O)cc3)NC(=O)[C@@H](N)CC#N)C(=O)N[C@@H](CCC(N)=O)C(=O)N[C@@H](CCCCN)C(=O)N[C@@H](Cc3c[nH]c4ccccc34)C(=O)N[C@@H](CCCC)C(=O)N[C@@H](Cc3c[nH]c4ccccc34)C(=O)N[C@@H]([C@@H](C)O)C(=O)N[C@H]3CSSC[C@H](NC(=O)[C@H](CCCNC(=N)N)NC(=O)[C@H](CC(C)C)NC(=O)CNC1=O)C(=O)N[C@@H](CCCCN)C(=O)N[C@@H](CC(C)C)C(=O)N[C@@H](Cc1c[nH]c4ccccc14)C(=O)N[C@H](C(=O)N[C@@H](CCCNC(=N)N)C(=O)N[C@@H](CCCCN)C(=O)N[C@@H](CCC(=O)O)C(=O)N[C@@H](Cc1c[nH]c4ccccc14)C(N)=O)CSSC[C@H](NC(=O)[C@H](C)NC(=O)[C@H](CCCNC(=N)N)NC(=O)[C@H](CCCCN)NC(=O)[C@H](CO)NC(=O)[C@H](CC(=O)O)NC3=O)C(=O)N2 [compound 452] | 64.6 | 26 | 2.51 | – | – | –
